{
  "source": "patent US20120141440A1",
  "about": "“FOAMYVIRUS VECTORS AND METHODS OF USE” (priority 2009, published 2012)",
  "system": "293T cells",
  "experiment": "Western blot of protein expressed from wild-type and human codon optimized foamyvirus gag, pol and env constructs",
  "assay_type": "cell-based",
  "details": "optimized vs wild-type sequence",
  "description": "To assessing the amount of protein that was present in virus producing cells upon transfection of the human codon usage-optimized cDNAs in comparison with the wild-type sequences, 293T packaging cells were transfected with equal amounts of the corresponding plasmids in sequential dilutions. DNA (pUC19) from a cloning vector was utilized to keep the absolute amount of DNA transfected into 293T cells the same. For FV gag and pol, the only difference between the two plasmids was the optimization of the FV gene for human codon usage. For the PFV env gene, the human optimized ORF in a vector with slice donor and acceptor sites was compared to the non-optimzed sequence expressed without splice sites in the same vector. Additionally, the expression of optimized simian FV (SFV) env contained on pUC19, like the above comparisons, was compared to a non-optimized SFV env contained on a pCL (Promega).",
  "data": [
    {"substance": "SFV-1 env: Homo sapiens optimized Env cDNA from Simian Foamy Virus (SFV-1) (SEQ. ID. No. 4)", "values": [
      {"measurement": "protein levels increased through optimization of the FV genes for human codon usage", "value": "increased"}
    ]}
  ]
}
